# From ChEMBL document CHEMBL3885861, “Open TG-GATES”
# Species: Rattus norvegicus
# Test: Open TG-GATES - Regimen: Single
# Assay type: toxicity, organism-based, Sprague-Dawley
# Parameters: regimen Single, gender Male, age 6 weeks
# Conditions: in vivo, po, 30 mg/kg, route gavage, dose level Low; for APTT / Bas / Eos / Fbg / Hb / Ht / Lym / MCH / MCHC / MCV / Mono / Neu / PT / Plat / RBC / Ret / WBC: tissue Blood; for KIDNEY_L / KIDNEY_R / KIDNEY_TOTAL: tissue Kidney; for LIVER: tissue Liver; for A/G / ALP / ALT / AST / BUN / CRE / Ca / Cl / DBIL / GLC / IP / K / LDH / Na / PL / RALB / TBIL / TC / TG / TP / gamma-GTP: tissue Plasma
smiles,measurement,setting,value
C[C@]12CCC(=O)C=C1CC[C@@H]1[C@@H]2CC[C@@]2(C)[C@H]1CC[C@]2(C)O [METHYLTESTOSTERONE],TERMINAL_BW,3 h,203.4 g
same,APTT,3 h,15.6 s
same,Bas,3 h,0%
same,Eos,3 h,1%
same,Fbg,3 h,292.4 mg/dL
same,Hb,3 h,12.7 g/dL
same,Ht,3 h,37.1%
same,Lym,3 h,77%
same,MCH,3 h,21.2 pg
same,MCHC,3 h,34.2%
same,MCV,3 h,61.9 fL
same,Mono,3 h,3.8%
same,Neu,3 h,17%
same,PT,3 h,13.1 s
same,Plat,3 h,105.6 x10_4/uL
same,RBC,3 h,599 x10_4/ul
same,Ret,3 h,8.5%
same,WBC,3 h,69.9 x10_2/uL
same,KIDNEY_L,3 h,0.9 g
same,KIDNEY_R,3 h,0.9 g
same,KIDNEY_TOTAL,3 h,1.8 g
same,LIVER,3 h,8.6 g
same,A/G,3 h,0.9
same,ALP,3 h,1715.8 IU/L
same,ALT,3 h,48.8 IU/L
same,AST,3 h,82.6 IU/L
same,BUN,3 h,9.8 mg/dL
same,CRE,3 h,0.2 mg/dL
same,Ca,3 h,11 mg/dL
same,Cl,3 h,106 meq/L
same,DBIL,3 h,0.012 mg/dL
same,GLC,3 h,181.8 mg/dL
same,IP,3 h,9.1 mg/dL
same,K,3 h,4.4 meq/L
same,LDH,3 h,76.6 IU/L
same,Na,3 h,141.4 meq/L
same,PL,3 h,131 mg/dL
same,RALB,3 h,2.5 g/dL
same,TBIL,3 h,0.048 mg/dL
same,TC,3 h,72.8 mg/dL
same,TG,3 h,41.8 mg/dL
same,TP,3 h,5.4 g/dL
same,gamma-GTP,3 h,1 IU/L
same,TERMINAL_BW,6 h,202.1 g
same,APTT,6 h,17 s
same,Bas,6 h,0.2%
same,Eos,6 h,1%
same,Fbg,6 h,281 mg/dL
same,Hb,6 h,13.2 g/dL
same,Ht,6 h,38.6%
same,Lym,6 h,74.8%
same,MCH,6 h,21.4 pg
same,MCHC,6 h,34.1%
same,MCV,6 h,62.9 fL
same,Mono,6 h,3%
same,Neu,6 h,20.8%
same,PT,6 h,13.3 s
same,Plat,6 h,112.5 x10_4/uL
same,RBC,6 h,614.8 x10_4/ul
same,Ret,6 h,8.1%
same,WBC,6 h,69.8 x10_2/uL
same,KIDNEY_L,6 h,0.9 g
same,KIDNEY_R,6 h,0.9 g
same,KIDNEY_TOTAL,6 h,1.8 g
same,LIVER,6 h,8 g
same,A/G,6 h,0.9
same,ALP,6 h,1451.8 IU/L
same,ALT,6 h,44.8 IU/L
same,AST,6 h,77.4 IU/L
same,BUN,6 h,9.4 mg/dL
same,CRE,6 h,0.2 mg/dL
same,Ca,6 h,10.7 mg/dL
same,Cl,6 h,107.2 meq/L
same,DBIL,6 h,0.01 mg/dL
same,GLC,6 h,181 mg/dL
same,IP,6 h,10 mg/dL
same,K,6 h,4.2 meq/L
same,LDH,6 h,68.2 IU/L
same,Na,6 h,142.2 meq/L
same,PL,6 h,120.8 mg/dL
same,RALB,6 h,2.6 g/dL
same,TBIL,6 h,0.042 mg/dL
same,TC,6 h,70.6 mg/dL
same,TG,6 h,32.8 mg/dL
same,TP,6 h,5.4 g/dL
same,gamma-GTP,6 h,1.2 IU/L
same,TERMINAL_BW,9 h,203.1 g
same,APTT,9 h,16.9 s
same,Bas,9 h,0%
same,Eos,9 h,1%
same,Fbg,9 h,287.4 mg/dL
same,Hb,9 h,13.2 g/dL
same,Ht,9 h,38.3%
same,Lym,9 h,77.2%
same,MCH,9 h,21.4 pg
same,MCHC,9 h,34.6%
same,MCV,9 h,61.7 fL
same,Mono,9 h,2.6%
same,Neu,9 h,18.4%
same,PT,9 h,13.3 s
same,Plat,9 h,113.2 x10_4/uL
same,RBC,9 h,620.8 x10_4/ul
same,Ret,9 h,8.2%
same,WBC,9 h,66.5 x10_2/uL
same,KIDNEY_L,9 h,0.9 g
same,KIDNEY_R,9 h,0.9 g
same,KIDNEY_TOTAL,9 h,1.7 g
same,LIVER,9 h,7.8 g
same,A/G,9 h,0.9
same,ALP,9 h,1527.6 IU/L
same,ALT,9 h,39.2 IU/L
same,AST,9 h,74.6 IU/L
same,BUN,9 h,8.8 mg/dL
same,CRE,9 h,0.2 mg/dL
same,Ca,9 h,10.6 mg/dL
same,Cl,9 h,107.6 meq/L
same,DBIL,9 h,0.01 mg/dL
same,GLC,9 h,185.2 mg/dL
same,IP,9 h,10.9 mg/dL
same,K,9 h,3.9 meq/L
same,LDH,9 h,65.6 IU/L
same,Na,9 h,142.8 meq/L
same,PL,9 h,120 mg/dL
same,RALB,9 h,2.6 g/dL
same,TBIL,9 h,0.054 mg/dL
same,TC,9 h,68.4 mg/dL
same,TG,9 h,26 mg/dL
same,TP,9 h,5.4 g/dL
same,gamma-GTP,9 h,1.6 IU/L
same,TERMINAL_BW,24 h,208 g
same,APTT,24 h,19.7 s
same,Bas,24 h,0%
same,Eos,24 h,0.8%
same,Fbg,24 h,277 mg/dL
same,Hb,24 h,13 g/dL
same,Ht,24 h,37.9%
same,Lym,24 h,77%
same,MCH,24 h,21 pg
same,MCHC,24 h,34.2%
same,MCV,24 h,61.3 fL
same,Mono,24 h,2.8%
same,Neu,24 h,19%
same,PT,24 h,13.1 s
same,Plat,24 h,120.3 x10_4/uL
same,RBC,24 h,619.4 x10_4/ul
same,Ret,24 h,7.5%
same,WBC,24 h,80.6 x10_2/uL
same,KIDNEY_L,24 h,0.9 g
same,KIDNEY_R,24 h,0.9 g
same,KIDNEY_TOTAL,24 h,1.8 g
same,LIVER,24 h,9.4 g
same,A/G,24 h,0.9
same,ALP,24 h,1796.2 IU/L
same,ALT,24 h,55.8 IU/L
same,AST,24 h,81.2 IU/L
same,BUN,24 h,13.8 mg/dL
same,CRE,24 h,0.2 mg/dL
same,Ca,24 h,11.1 mg/dL
same,Cl,24 h,106.8 meq/L
same,DBIL,24 h,0.016 mg/dL
same,GLC,24 h,184.6 mg/dL
same,IP,24 h,8.3 mg/dL
same,K,24 h,4.1 meq/L
same,LDH,24 h,82 IU/L
same,Na,24 h,141.4 meq/L
same,PL,24 h,134.2 mg/dL
same,RALB,24 h,2.7 g/dL
same,TBIL,24 h,0.028 mg/dL
same,TC,24 h,68.2 mg/dL
same,TG,24 h,84.2 mg/dL
same,TP,24 h,5.7 g/dL
same,gamma-GTP,24 h,1 IU/L
